Consider 7 compounds from ChEMBL document CHEMBL5579898, “Between Theory and Practice: Computational/Experimental Integrated Approaches to Understand the Solubility and Lipophilicity of PROTACs” (J Med Chem, 2024).

≈ marks a conversion by molar mass, not a printed value.

What all share (type): physicochemical
A short description of data set [1]: Kinetic solubility of the compound incubated for 60 mins under shaking condition by UV-Vis spectroscopic analysis. Particulars: 1 h.
Data set [2] can be described thus: Kinetic solubility of the compound incubated for 60 mins under shaking condition by UHPLC-MS analysis. Particulars: 1 h.
A short description of data set [3]: Distribution coefficient, logD of compound in n-Octanol/PBS at pH 7.4 incubated for 30 mins under shaking condition by UV-Vis spectroscopic analysis. Particulars: for logD at 0.5 h: n-octanol/PBS, pH 7.4; for logD: octanol/water, pH 7.4, 0.5 h, BLD = below limit of detection.
The nature of data set [4]: Distribution coefficient, logD of compound in n-Octanol/PBS at pH 7.4 incubated for 30 mins under shaking condition by UHPLC-MS analysis.
Data set [5] can be described thus: Kinetic solubility of the compound in universal buffer at pH 7.4 incubated for 60 mins under shaking condition by UHPLC-MS analysis. Particulars: read-out: Kinetic_solubility.
The nature of data set [6]: Dissociation constant, pKa of the compound.
Data set [7] is described as follows: Kinetic solubility of the compound in PBS buffer at 50 mM pH 7.4 incubated for 60 mins under shaking condition by UHPLC-MS analysis. Particulars: read-out: Kinetic_solubility.

`Cc1sc2c(c1C)C(c1ccc(Cl)cc1)=N[C@@H](CC(=O)NCCCN1CCN(CCCNc3cccc4c3C(=O)N(C3CCC(=O)NC3=O)C4=O)CC1)c1nnc(C)n1-2` (some centres undefined): the “log(Kinetic_solubility)” value in data set [1] is listed as -4.15; in data set [2], -5.15. Further, the logD at 0.5 h in data set [3] was 3.3; in data set [4] it was 3.82. In addition, the solubility kinetic at 1 h in data set [5] came out at 71 µM (≈ 59.6 µg/mL). For the same compound, in data set [6], the pKa worked out at 4.49.

For the compound `Cc1sc2c(c1C)C(c1ccc(Cl)cc1)=N[C@@H](CC(=O)NCCCCCCCCNc1cccc3c1C(=O)N(C1CCC(=O)NC1=O)C3=O)c1nnc(C)n1-2` (some centres undefined), the “log(Kinetic_solubility)” value in data set [1] (BLD = below limit of detection) was “Bld”; in data set [2] it was -7.33. Moreover, the logD result in data set [3] is “Bld”. For the same compound, in data set [4], the log distribution coefficient (logD) at 0.5 h is 5.5. In data set [5], the solubility kinetic at 1 h is 0.05 µM (≈ 0.0392 µg/mL). Besides, the pKa in data set [6] was determined as 7.98.

On to `Cc1ncsc1-c1ccc([C@H](C)NC(=O)[C@@H]2C[C@@H](O)CN2C(=O)[C@@H](NC(=O)CCCCNC(=O)COc2c(-c3csc(N4CCOCC4)n3)ccc(F)c2F)C(C)(C)C)cc1`, for which the “log(Kinetic_solubility)” value in data set [1] and in data set [2] was -4.72 each time. The logD entry in data set [3] is given as “Bld”. For the same compound, in data set [4], the log distribution coefficient (logD) at 0.5 h was 4.98. Further, the solubility kinetic at 1 h in data set [5] stood at 12 µM (≈ 10.6 µg/mL); in data set [7], 17 µM (≈ 15 µg/mL).

Consider `Cc1ncsc1-c1ccc(CNC(=O)[C@@H]2C[C@@H](O)CN2C(=O)[C@@H](NC(=O)COCCOCCOCC(=O)N[C@H](C(=O)N2C[C@H](O)C[C@H]2C(=O)NCc2ccc(-c3scnc3C)cc2)C(C)(C)C)C(C)(C)C)cc1`, for which the results for the “log(Kinetic_solubility)” value in data set [1] and in data set [2] were -3.93 and -3.98, respectively. Besides, the pH-dependent lipophilicity (logD) at 0.5 h in data set [3] came out at 3.7; in data set [4], 3.19.

As for `Cc1ncsc1-c1ccc([C@H](CC(=O)N2CCC(N3CCC(C#Cc4ccc(C(=O)N[C@H]5C(C)(C)[C@H](Oc6ccc(C#N)c(Cl)c6)C5(C)C)cc4)CC3)CC2)NC(=O)[C@@H]2C[C@@H](O)CN2C(=O)[C@@H](NC(=O)C2(F)CC2)C(C)(C)C)cc1`, the “log(Kinetic_solubility)” value in data set [1] (BLD = below limit of detection) and in data set [2] (BLD = below limit of detection) was “Bld” each time. Also, the log distribution coefficient (logD) result in data set [3] is “Bld”. In addition, the logD at 0.5 h in data set [4] was found to be 5.5.

With `Cc1ncsc1-c1ccc([C@H](C)NC(=O)[C@@H]2C[C@@H](O)CN2C(=O)[C@@H](NC(=O)CCCCCCOc2ccc3c(c2)c(C(=O)O)c(C)n3Cc2ccccc2)C(C)(C)C)cc1`, the figures for the “log(Kinetic_solubility)” value in data set [1] (BLD = below limit of detection) and in data set [2] were “Bld” and -5.8, respectively. For the same compound, the log distribution coefficient (logD) result in data set [3] was “Bld”. Moreover, in data set [4], the logD at 0.5 h stood at 5.

As to `Cc1ncsc1-c1ccc([C@H](C)NC(=O)[C@@H]2C[C@@H](O)CN2C(=O)[C@@H](NC(=O)COCCOCCNC(=O)COc2c(-c3csc(N4CCOCC4)n3)ccc(F)c2F)C(C)(C)C)cc1`, the “log(Kinetic_solubility)” value in data set [1] is -4.47; in data set [2], -4.52. Also, the pH-dependent lipophilicity (logD) at 0.5 h in data set [3] came out at 3.5; in data set [4], 3.94.
